Test results reported in PMC6704710, “Preclinical evaluation of 3D185, a novel potent inhibitor of FGFR1/2/3 and CSF-1R, in FGFR-dependent and macrophage-dominant cancer models” (Journal of Experimental & Clinical Cancer Research : CR, 2019).

Key:
Assay in all cases: Eurofins kinase panel
Assay type in all cases: biochemical
Settings in all cases: read-out: Inhibition rate (%)
ACTR2(h) = biological target: T1, ACTR2(h) (Homo sapiens, UniProt P27037)
T1 construct: purchased Eurofins (KinaseProfiler)
T1 sequence (P27037 20-513): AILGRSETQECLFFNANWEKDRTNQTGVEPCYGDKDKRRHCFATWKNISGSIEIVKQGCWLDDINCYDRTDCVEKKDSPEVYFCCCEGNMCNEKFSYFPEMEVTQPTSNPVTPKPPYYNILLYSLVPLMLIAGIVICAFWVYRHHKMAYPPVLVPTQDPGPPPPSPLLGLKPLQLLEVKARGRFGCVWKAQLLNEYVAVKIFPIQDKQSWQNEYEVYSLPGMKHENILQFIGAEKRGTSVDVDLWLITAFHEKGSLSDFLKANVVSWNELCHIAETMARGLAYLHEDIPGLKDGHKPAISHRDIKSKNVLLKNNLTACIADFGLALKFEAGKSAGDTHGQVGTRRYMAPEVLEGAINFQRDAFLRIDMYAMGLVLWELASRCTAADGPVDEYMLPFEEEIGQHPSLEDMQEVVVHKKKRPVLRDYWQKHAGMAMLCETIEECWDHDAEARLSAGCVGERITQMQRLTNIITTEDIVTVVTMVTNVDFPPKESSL

DCAMKL3(h) = biological target: T2, DCAMKL3(h) (Homo sapiens, UniProt Q9C098)
T2 construct: purchased Eurofins (KinaseProfiler)
T2 sequence (Q9C098 1-648): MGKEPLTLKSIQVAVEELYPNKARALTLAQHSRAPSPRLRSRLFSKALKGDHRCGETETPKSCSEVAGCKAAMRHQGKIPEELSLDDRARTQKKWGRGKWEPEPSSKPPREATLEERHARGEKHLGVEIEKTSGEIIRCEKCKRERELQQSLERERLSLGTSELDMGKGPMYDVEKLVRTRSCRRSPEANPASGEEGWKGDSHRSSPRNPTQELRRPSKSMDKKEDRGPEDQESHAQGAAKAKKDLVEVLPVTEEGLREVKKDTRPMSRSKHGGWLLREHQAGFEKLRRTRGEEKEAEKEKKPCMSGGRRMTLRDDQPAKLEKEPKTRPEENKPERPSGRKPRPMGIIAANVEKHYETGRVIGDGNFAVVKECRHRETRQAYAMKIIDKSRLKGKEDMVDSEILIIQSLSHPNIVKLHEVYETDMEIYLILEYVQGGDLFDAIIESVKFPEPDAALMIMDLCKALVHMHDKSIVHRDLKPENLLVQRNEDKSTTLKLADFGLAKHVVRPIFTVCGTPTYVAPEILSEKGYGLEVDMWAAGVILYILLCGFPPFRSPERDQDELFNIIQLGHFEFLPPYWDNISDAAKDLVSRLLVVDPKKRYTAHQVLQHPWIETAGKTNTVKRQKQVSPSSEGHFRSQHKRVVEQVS

DYRK1A(h) = biological target: T3, DYRK1A(h) (Homo sapiens, UniProt Q13627)
T3 construct: purchased Eurofins (KinaseProfiler)

IKKβ(h) = biological target: T4, IKKβ(h) (Homo sapiens, UniProt O14920)
T4 construct: purchased Eurofins (KinaseProfiler)
T4 sequence (O14920 1-756): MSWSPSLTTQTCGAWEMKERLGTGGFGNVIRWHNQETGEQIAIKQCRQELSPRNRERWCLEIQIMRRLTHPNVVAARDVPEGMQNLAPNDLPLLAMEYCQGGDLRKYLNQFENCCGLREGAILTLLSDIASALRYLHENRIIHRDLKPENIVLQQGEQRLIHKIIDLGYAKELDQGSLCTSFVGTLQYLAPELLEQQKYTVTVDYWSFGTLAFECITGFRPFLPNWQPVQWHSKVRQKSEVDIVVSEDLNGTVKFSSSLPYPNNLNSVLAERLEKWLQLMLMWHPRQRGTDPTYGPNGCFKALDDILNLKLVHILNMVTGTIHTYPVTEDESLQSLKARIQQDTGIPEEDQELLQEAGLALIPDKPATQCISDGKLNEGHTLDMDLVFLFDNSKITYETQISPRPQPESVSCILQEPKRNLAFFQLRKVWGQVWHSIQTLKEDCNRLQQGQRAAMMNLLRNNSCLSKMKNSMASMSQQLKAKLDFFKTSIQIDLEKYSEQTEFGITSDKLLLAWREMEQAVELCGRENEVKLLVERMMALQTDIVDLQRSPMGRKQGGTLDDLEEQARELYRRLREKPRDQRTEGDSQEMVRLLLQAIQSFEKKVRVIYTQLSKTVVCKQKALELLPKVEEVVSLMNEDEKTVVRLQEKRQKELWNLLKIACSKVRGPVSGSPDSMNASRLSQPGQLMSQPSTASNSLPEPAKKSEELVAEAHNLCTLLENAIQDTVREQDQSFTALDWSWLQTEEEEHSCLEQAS

KDR(h) = biological target: T5, KDR(h) (Homo sapiens, UniProt P35968)
T5 construct: purchased Eurofins (KinaseProfiler)

MARK3(h) = biological target: T6, MARK3(h) (Homo sapiens, UniProt P27448)
T6 construct: purchased Eurofins (KinaseProfiler)
T6 sequence (P27448 whole entry): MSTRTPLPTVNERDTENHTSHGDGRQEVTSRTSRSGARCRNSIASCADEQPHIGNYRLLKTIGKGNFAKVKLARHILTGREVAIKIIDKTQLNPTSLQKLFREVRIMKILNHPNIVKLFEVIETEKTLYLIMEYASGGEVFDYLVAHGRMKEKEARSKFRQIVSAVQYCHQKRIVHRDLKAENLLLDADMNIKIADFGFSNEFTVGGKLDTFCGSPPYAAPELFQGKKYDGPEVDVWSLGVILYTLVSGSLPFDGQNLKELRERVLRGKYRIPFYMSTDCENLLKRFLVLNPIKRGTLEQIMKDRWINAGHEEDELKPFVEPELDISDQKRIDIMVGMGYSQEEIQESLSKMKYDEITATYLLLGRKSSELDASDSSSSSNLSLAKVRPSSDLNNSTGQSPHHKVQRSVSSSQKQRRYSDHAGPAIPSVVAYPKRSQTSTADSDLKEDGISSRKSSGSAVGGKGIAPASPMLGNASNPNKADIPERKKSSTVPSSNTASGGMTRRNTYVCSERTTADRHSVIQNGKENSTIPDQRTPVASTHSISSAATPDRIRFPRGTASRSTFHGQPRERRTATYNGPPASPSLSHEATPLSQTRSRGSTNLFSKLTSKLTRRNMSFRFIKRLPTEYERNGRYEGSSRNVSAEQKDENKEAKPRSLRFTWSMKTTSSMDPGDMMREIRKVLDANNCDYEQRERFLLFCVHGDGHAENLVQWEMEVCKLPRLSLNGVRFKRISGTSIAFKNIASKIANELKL

[1] = biological target: T7, PI3 Kinase (p110α(E542K)/p85α)(h) (Homo sapiens, UniProt P42336, E542K)
T7 construct: purchased Eurofins (KinaseProfiler)

PKBβ(h) = biological target: T8, PKBβ(h) (Homo sapiens, UniProt P31751)
T8 construct: purchased Eurofins (KinaseProfiler)

PRK1(h) = biological target: T9, PRK1(h) (Homo sapiens, UniProt Q16512)
T9 construct: purchased Eurofins (KinaseProfiler)

Rsk1(r) = biological target: T10, Rsk1(r) (Rattus norvegicus, UniProt Q63531)
T10 construct: purchased Eurofins (KinaseProfiler)

Src(1-530)(h) = biological target: T11, Src(1-530)(h) (Homo sapiens, UniProt P12931)
T11 construct: purchased Eurofins (KinaseProfiler)
T11 sequence (P12931 1-530 limits assumed): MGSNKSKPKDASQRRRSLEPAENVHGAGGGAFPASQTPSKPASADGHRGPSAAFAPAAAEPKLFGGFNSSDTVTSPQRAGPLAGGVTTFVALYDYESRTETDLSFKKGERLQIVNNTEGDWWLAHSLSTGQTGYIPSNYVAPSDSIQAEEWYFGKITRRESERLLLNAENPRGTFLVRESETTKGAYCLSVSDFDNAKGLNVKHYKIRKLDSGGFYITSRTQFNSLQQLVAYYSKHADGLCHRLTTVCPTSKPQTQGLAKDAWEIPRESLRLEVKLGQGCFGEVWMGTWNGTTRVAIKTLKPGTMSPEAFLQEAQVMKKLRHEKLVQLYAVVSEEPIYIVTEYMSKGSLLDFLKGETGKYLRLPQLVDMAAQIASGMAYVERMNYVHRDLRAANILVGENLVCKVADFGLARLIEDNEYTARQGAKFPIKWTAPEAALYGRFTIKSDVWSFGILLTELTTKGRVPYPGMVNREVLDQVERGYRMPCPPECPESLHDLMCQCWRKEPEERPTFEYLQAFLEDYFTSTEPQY

TLK2(h) = biological target: T12, TLK2(h) (Homo sapiens, UniProt Q86UE8)
T12 construct: purchased Eurofins (KinaseProfiler)
T12 sequence (Q86UE8 whole entry): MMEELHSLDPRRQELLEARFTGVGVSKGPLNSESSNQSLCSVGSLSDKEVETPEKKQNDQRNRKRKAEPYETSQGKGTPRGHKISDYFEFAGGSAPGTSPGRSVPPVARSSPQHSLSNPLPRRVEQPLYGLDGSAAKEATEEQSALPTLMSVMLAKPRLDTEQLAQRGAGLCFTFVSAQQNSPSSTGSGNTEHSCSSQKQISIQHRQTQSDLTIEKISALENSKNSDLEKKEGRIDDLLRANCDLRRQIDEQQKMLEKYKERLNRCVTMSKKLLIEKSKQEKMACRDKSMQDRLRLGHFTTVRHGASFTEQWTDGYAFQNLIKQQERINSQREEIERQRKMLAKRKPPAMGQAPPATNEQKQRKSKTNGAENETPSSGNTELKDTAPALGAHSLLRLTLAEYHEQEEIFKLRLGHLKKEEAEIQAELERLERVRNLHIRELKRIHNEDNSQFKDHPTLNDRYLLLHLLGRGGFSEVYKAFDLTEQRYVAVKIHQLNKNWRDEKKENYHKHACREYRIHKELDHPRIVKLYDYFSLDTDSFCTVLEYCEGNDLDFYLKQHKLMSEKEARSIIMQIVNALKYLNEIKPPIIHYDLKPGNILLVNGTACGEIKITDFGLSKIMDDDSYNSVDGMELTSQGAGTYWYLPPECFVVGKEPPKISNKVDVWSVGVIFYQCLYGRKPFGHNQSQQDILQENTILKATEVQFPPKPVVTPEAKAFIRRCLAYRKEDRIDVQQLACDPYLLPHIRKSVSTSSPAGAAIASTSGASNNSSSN

TTBK1(h) = biological target: T13, TTBK1(h) (Homo sapiens, UniProt Q5TCY1)
T13 construct: purchased Eurofins (KinaseProfiler)
T13 sequence (Q5TCY1 whole entry): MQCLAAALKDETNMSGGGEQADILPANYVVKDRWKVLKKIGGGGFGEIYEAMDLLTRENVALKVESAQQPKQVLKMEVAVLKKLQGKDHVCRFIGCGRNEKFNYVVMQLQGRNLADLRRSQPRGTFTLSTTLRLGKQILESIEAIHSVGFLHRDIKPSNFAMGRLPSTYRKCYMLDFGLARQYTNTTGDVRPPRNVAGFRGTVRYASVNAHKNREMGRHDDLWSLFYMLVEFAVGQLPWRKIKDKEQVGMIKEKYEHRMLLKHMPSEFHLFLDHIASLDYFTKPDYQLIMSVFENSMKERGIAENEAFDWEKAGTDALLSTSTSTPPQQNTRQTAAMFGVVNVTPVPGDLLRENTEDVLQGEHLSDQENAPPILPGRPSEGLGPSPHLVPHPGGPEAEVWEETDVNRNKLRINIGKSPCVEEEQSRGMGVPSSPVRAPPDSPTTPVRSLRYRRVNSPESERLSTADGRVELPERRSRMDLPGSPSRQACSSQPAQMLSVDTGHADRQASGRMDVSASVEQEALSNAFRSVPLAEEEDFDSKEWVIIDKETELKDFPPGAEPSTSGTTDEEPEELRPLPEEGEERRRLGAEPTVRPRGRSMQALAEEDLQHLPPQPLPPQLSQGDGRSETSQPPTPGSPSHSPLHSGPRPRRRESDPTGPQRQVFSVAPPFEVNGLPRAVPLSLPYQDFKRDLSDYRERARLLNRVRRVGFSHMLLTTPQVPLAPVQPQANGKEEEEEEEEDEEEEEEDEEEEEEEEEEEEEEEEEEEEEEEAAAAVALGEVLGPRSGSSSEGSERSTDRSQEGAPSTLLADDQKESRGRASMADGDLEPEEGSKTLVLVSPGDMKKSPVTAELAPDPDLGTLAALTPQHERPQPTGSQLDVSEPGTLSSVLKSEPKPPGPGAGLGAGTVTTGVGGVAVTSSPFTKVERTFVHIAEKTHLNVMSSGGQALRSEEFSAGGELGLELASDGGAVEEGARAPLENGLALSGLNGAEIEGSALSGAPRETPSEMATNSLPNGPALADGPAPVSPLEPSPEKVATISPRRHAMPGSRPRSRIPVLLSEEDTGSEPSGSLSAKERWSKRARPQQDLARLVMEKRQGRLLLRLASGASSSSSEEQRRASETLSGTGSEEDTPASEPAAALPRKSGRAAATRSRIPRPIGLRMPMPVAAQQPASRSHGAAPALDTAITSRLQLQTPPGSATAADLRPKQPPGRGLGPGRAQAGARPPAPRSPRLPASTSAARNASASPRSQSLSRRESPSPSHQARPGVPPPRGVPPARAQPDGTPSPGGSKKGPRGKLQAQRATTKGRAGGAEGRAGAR

cKit(D816V)(h) = biological target: T14, cKit(D816V)(h) (Homo sapiens, UniProt P10721, D816V)
T14 construct: purchased Eurofins (KinaseProfiler)
T14 sequence (P10721 26-976 D816V): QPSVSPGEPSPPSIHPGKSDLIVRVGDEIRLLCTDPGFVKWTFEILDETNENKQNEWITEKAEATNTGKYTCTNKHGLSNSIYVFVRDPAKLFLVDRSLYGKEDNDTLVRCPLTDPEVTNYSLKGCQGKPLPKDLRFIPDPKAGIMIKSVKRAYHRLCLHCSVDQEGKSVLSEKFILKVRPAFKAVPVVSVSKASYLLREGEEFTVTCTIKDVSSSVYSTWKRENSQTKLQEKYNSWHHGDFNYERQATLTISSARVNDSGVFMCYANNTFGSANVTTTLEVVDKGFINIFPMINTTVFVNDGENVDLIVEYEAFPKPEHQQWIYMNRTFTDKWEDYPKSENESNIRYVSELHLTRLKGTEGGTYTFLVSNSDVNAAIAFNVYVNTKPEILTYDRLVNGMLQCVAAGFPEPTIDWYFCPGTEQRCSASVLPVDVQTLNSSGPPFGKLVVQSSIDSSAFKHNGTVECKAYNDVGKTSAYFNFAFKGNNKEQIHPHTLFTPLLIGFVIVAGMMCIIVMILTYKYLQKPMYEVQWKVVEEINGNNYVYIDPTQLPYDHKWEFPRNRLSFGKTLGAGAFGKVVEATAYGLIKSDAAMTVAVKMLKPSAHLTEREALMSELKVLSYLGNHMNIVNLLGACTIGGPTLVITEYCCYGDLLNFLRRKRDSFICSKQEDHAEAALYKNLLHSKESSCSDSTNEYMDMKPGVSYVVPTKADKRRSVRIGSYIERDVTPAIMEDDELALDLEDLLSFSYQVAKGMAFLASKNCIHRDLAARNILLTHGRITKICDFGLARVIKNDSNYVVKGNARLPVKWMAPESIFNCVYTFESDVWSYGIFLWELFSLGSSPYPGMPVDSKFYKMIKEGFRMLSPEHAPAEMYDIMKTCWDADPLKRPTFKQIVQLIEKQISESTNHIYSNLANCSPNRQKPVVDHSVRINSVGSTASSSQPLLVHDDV

For `COc1cc(OC)c(Cl)c(-c2ccc3c(NC(=O)c4ccc(N5CCNC(C)(C)C5)cc4)n[nH]c3n2)c1Cl` [3D185], the inhibition at 0.01 µM (ACTR2(h); 10 nM) was 0%, the inhibition at 0.1 µM (ACTR2(h); 100 nM) was -1% and the inhibition at 1 µM (ACTR2(h); 1000 nM) was 1%. The inhibition at 0.01 µM (DCAMKL3(h); 10 nM) was 5%, the inhibition at 0.1 µM (DCAMKL3(h); 100 nM) was 7% and the inhibition at 1 µM (DCAMKL3(h); 1000 nM) was 16%. It also gave an inhibition at 0.01 µM (DYRK1A(h); 10 nM) of -4%, an inhibition at 0.1 µM (DYRK1A(h); 100 nM) of 1% and an inhibition at 1 µM (DYRK1A(h); 1000 nM) of 5%. For the same compound, the inhibition at 0.01 µM (IKKβ(h); 10 nM) was 0%, the inhibition at 0.1 µM (IKKβ(h); 100 nM) was -5% and the inhibition at 1 µM (IKKβ(h); 1000 nM) was 15%. For the same compound, the inhibition at 0.01 µM (KDR(h); 10 nM) was -2%, the inhibition at 0.1 µM (KDR(h); 100 nM) was 1% and the inhibition at 1 µM (KDR(h); 1000 nM) was 10%. It also gave an inhibition at 0.01 µM (MARK3(h); 10 nM) of 7%, an inhibition at 0.1 µM (MARK3(h); 100 nM) of -6% and an inhibition at 1 µM (MARK3(h); 1000 nM) of -4%. For the same compound, the inhibition at 0.01 µM ([1]; 10 nM) was -2%, the inhibition at 0.1 µM ([1]; 100 nM) was 2% and the inhibition at 1 µM ([1]; 1000 nM) was 2%. For the same compound, the inhibition at 0.01 µM (PKBβ(h); 10 nM) was 15%, the inhibition at 0.1 µM (PKBβ(h); 100 nM) was 29% and the inhibition at 1 µM (PKBβ(h); 1000 nM) was 30%. It also gave an inhibition at 0.01 µM (PRK1(h); 10 nM) of 2%, an inhibition at 0.1 µM (PRK1(h); 100 nM) of 1% and an inhibition at 1 µM (PRK1(h); 1000 nM) of 2%. It also gave an inhibition at 0.01 µM (Rsk1(r); 10 nM) of -17%, an inhibition at 0.1 µM (Rsk1(r); 100 nM) of 8% and an inhibition at 1 µM (Rsk1(r); 1000 nM) of 30%. The inhibition at 0.01 µM (Src(1-530)(h); 10 nM) was 4%, the inhibition at 0.1 µM (Src(1-530)(h); 100 nM) was 30% and the inhibition at 1 µM (Src(1-530)(h); 1000 nM) was 82%. It also gave an inhibition at 0.01 µM (TLK2(h); 10 nM) of 0%, an inhibition at 0.1 µM (TLK2(h); 100 nM) of -1% and an inhibition at 1 µM (TLK2(h); 1000 nM) of -1%. For the same compound, the inhibition at 0.01 µM (TTBK1(h); 10 nM) was 2%, the inhibition at 0.1 µM (TTBK1(h); 100 nM) was -7% and the inhibition at 1 µM (TTBK1(h); 1000 nM) was -6%. It also gave an inhibition at 0.01 µM (cKit(D816V)(h); 10 nM) of -7%, an inhibition at 0.1 µM (cKit(D816V)(h); 100 nM) of 1% and an inhibition at 1 µM (cKit(D816V)(h); 1000 nM) of 3%.
